Converted amounts (≈) assume the structure as drawn. One block for each compound: values may come before it. The source made the active and inactive calls. The calls are words filed in the database; no cut-off is given here.
How the values were obtained:
[1] = Inhibition of IL1 beta production in glia cells; assay type: functional, cell-based; settings: Homo sapiens
[2] = Aqueous solubility of the compound; assay type: physicochemical; settings: buffer
Homo sapiens = species: Homo sapiens; assay: Suppression of proinflammatory cytokine production in glia cells; assay type: functional, cell-based
[3] = Partition coefficient, log P of the compound; assay type: physicochemical; settings: octanol/water
[4] = Chemical stability in water; assay type: physicochemical; settings: buffer
[5] = Chemical stability in hydrogen peroxide upto 48 hrs; assay type: physicochemical; settings: read-out: Stability
[6] = Chemical stability in dilute base after 5 days; assay type: physicochemical; settings: read-out: Stability
Mus musculus [7] = assay: Suppression of IL1-beta production in human amyloid-beta induced mouse injury model at […], po for 2 weeks after 60 days of injury; assay type: functional, organism-based; parameters: dose 2.5 mg/kg
Mus musculus [8] = assay: Suppression of TNFalpha production in human amyloid-beta induced mouse injury model at […], po for 2 weeks after 60 days of injury; assay type: functional, organism-based; parameters: dose 2.5 mg/kg
Mus musculus [9] = assay: Suppression of S100B production in human amyloid-beta induced mouse injury model at […], po for 2 weeks after 60 days of injury; assay type: functional, organism-based; parameters: dose 2.5 mg/kg
Mus musculus [10] = assay: Reduction of GFAP-positive astrocytes in human amyloid-beta induced mouse injury model at […], po for 2 weeks after 60 days of injury; assay type: functional, organism-based; parameters: dose 2.5 mg/kg
Mus musculus [11] = assay: Reduction of F4/80 positive microglia in human amyloid-beta induced mouse injury model at […], po for 2 weeks after 60 days of injury; assay type: functional, organism-based; parameters: dose 2.5 mg/kg
Mus musculus [12] = species: Mus musculus; assay: Prevention of loss of synaptic protein synaptophytsin in human amyloid-beta induced mouse injury model; assay type: functional, organism-based
Mus musculus [13] = species: Mus musculus; assay: Prevention of loss of synaptic protein PSD95 in human amyloid-beta induced mouse injury model; assay type: functional, organism-based
Mus musculus [14] = species: Mus musculus; assay: Attenuation of hippocampal dependent behavioral deficits in mouse by Y maze test; assay type: functional, organism-based; settings: Hippocampus
Cavia porcellus = assay: Cardiotoxicity in guinea pig assessed as prolongation of QTc interval at 15 mg/kg, po; assay type: toxicity, organism-based; parameters: dose 15 mg/kg, route oral; settings: in vivo
[15] = Brain penetration, LogBB of the compound; assay type: ADME; settings: read-out: logBB (converted)

IC50 [1]: 46.1 µM
SMILES: Cc1cc(-c2ccccc2)nnc1N1CCN(c2cnccn2)CC1

Solubility [2]: < 2 ng/mL
SMILES: c1ccc(-c2cc(-c3ccccc3)c(N3CCN(c4ncccn4)CC3)nn2)cc1 [listing 1 of 2 here]

SMILES: Cc1cc(-c2ccccc2)nnc1NCCN1CCOCC1
Activity (Homo sapiens): inactive

IC50 [1]: 31.4 µM
SMILES: Cc1cc(-c2ccccc2)nnc1N1CCN(C2CCCCC2)CC1

IC50 [1]: 48.9 µM
SMILES: Cc1cc(-c2ccccc2)nnc1N1CCN(C)CC1

IC50 [1]: 15.5 µM
SMILES: Cc1cc(-c2ccccc2)nnc1N1CCN(c2ccccc2)CC1

logP [3]: 2.3
Stability [4]: < 5%
remaining at 48 h [5]: < 10%
remaining at 120 h [6]: 53%
SMILES: Cc1cc(-c2ccccc2)nnc1N1CCN(c2ncccn2)CC1.Cl.O

SMILES: Cc1cc(-c2ccccc2)nnc1N1CCN(c2ncccn2)CC1
Activity (Mus musculus [7]): Active
Activity (Mus musculus [8]): Active
Activity (Mus musculus [9]): Active
Activity (Mus musculus [10]): Active
Activity (Mus musculus [11]): Active
Activity (Mus musculus [12]): Active
Activity (Mus musculus [13]): Active
Activity (Mus musculus [14]): Active

logP [3]: 2.7
SMILES: c1ccc(-c2cc(-c3ccccc3)c(N3CCN(c4ncccn4)CC3)nn2)cc1 [listing 2 of 2 here]

IC50 [1]: 9.5 µM
SMILES: Clc1cc(-c2ccccc2)nnc1N1CCN(c2ncccn2)CC1

IC50 [1]: 8.3 µM
Solubility [2]: 16 ng/mL (≈ 0.0481 µM)
Kp [15]: 2.82
SMILES: Cc1cc(-c2ccccc2)nnc1N1CCN(c2ncccn2)CC1 [MINOZAC FREE BASE]
Activity (Cavia porcellus): Non-toxic

From ChEMBL document CHEMBL1146276, “Development of a novel therapeutic suppressor of brain proinflammatory cytokine up-regulation that attenuates synaptic dysfunction and behavioral deficits” (Bioorg Med Chem Lett, 2007)
